# Entries after “also recorded” stand apart in the source; their conditions may differ.
# Assays:
# HES cells [1] = assay: Seeding and colony formation of individualized HES cells in 96-well plates; assay type: cell-based, human
# Excerpt: For this purpose however the inventors plated 16,000 cells per well, which is a 5-fold higher seeding density, than in the regular propagation and maintenance of undifferentiated HES cells with the automated procedure.
# HES cells [2] = assay: Survival of HES cells after trypsin treatment, individualized and seeded in TeSR medium; assay type: cell-based, human; conditions: 0.1% trypsin; seeding onto Matrigel coated plates in TeSR medium
# Excerpt: The inventors utilized the system described in Example 1 and developed procedures for passaging of HES cells that were based on simple liquid handling protocols. Recent innovations in splitting techniques allowed for efficient automation of this otherwise demanding manual procedure. Since HES cells require cell-cell contacts for survival in TeSR media, they needed to be seeded in clumps which required scraping of attached cells, a procedure which would be very hard to automate.
# For automated passaging, the following procedure was developed: After retrieval of the mother plate from the incubator, the wash tool removes the spent media as described in aim 1. The 8-channel 200 μl pipetting tool MP200 is used to add […] of trypsin (0.1%). […] The cells are washed off the plate surface and mixed using the 8-channel MP200 tool by repetitive dispensing and aspiration. Cells are then dispensed to the daughter plates using the MP200 tool. The cells are then seeded 1 to 32 onto precoated Matrigel plates loaded from the stacker to the Biomek2000. […] The total surface area of the initially used Omnitray turned out to be too large for the throughput of the system at the stage of the next split once the inventors tested methods for passaging HES cells in aim 2. […]
# HES cells [3] = conditions: Watanabe et al. Nat Biotech (2007); cited from earlier work
SMILES,seeding of individualized HES cells in 96-well plates (HES cells [1]; 96-well plates),colony formation of HES cells from individualized cells (HES cells [1]; TeSR1 media),survival of HES cells after trypsin treatment (HES cells [2]),ability to maintain HES cell growth (HES cells [3])
"Cc1cncc2cccc(S(=O)(=O)N3CCCNCC3C)c12 (stereo in doubt) [H-1152, (S)-(+)-2-Methyl-1-[(4-methyl-5-isoquinolinyl)sulfonyl]homopiperazine]",allows for very efficient seeding of individualized HES cells in 96-well plates; also recorded: allows for very efficient seeding of individualized human ES cells in 96-well plates,actively increased colony formation,allow the survival of HES cells after trypsin treatment,–
O=S(=O)(c1cccc2cnccc12)N1CCNCC1 [HA-100],–,–,allow the survival of HES cells after trypsin treatment,supports the ability of HA-100 to maintain HES cell growth
